Results taken from patent publication US8648103B2, “Nitrogen-containing aromatic heterocyclyl compound” (Daiichi Sankyo Company, Limited, priority 2008, dated 2014).

system: Human subcutaneous adipocytes; experiment: Adipocyte lipolysis assay (suppression of isoproterenol-stimulated fatty acid release); type: cell-based; details: Homo sapiens, Adipocyte; test compound concentration giving 50% fatty acid concentration reduction percentage in culture supernatant; 1 μM isoproterenol, 5 hours incubation; reduction by 100 μM nicotinic acid set at 100%
Text: The suppressive or promoting activity of a test compound on the lipolysis of neutral fat can be assayed according to an adipocyte lipolysis assay as a cell line assay. If a beta adrenoceptor is stimulated with isoproterenol or the like in adipocytes, lipolysis action in which neutral fat accumulated in the cells is decomposed into fatty acid and glycerol can be promoted, and as a result, the amount of such fatty acid or glycerol released out of the cells can be increased. When a test compound that suppresses lipolysis is added to adipocytes, lipolysis-promoting action by isoproterenol stimulation is reduced, and the concentration of fatty acid or glycerol in a medium is decreased. Accordingly, the suppressive activity of a test compound on lipolysis can be assayed by measuring the reduction percentage of the fatty acid concentration or glycerol concentration in a culture supernatant. Likewise, the promoting activity of a test compound on lipolysis can be assayed by measuring the increase percentage of the fatty acid concentration or glycerol concentration in a medium.
• (1) Human subcutaneous adipocytes disseminated onto a 96 well (Dainippon Sumitomo Pharma Co., Ltd.: F-SA-1096) • (2) Adipocyte Maintenance Medium (Dainippon Sumitomo Pharma Co., Ltd.: AM 1) • (3) Lipolysis assay buffer [137 mM NaCl, 5 mM KCl, 4.2 mM NaHCO3, 1.3 mM CaCl2, 0.5 mM KH2PO4, 0.5 mM MgCl2, 0.5 mM MgSO4, 5 mM Glucose, 20 mM Hepes (pH 7.4), 1% BSA, 1 μM Isoproterenol] • (4) NEFA-C Test Wako (Wako Pure Chemical Industries, Ltd.) Preparation of Screening Materials
In this operation, the actual concentration of the test compound in the buffer was 1/1000 of the above-described concentration.
The above-described subcutaneous adipocytes were cultured in 200 μL of an Adipocyte Maintenance Medium in each well for 7 days. During this culturing operation, the medium was exchanged with a fresh one every 3 days. The medium was exchanged by discarding 100 μL of the medium in each well and then adding 100 μL of a fresh Adipocyte Maintenance Medium to the well. Thereafter, the adipocytes were washed with a Lipolysis assay buffer. Subsequently, 50 μL of a Lipolysis assay buffer that contained the above-described test compound was added to each well, and it was then incubated for 5 hours. In order to obtain the measurement value of the test compound in each concentration, 5 wells on a 96-well plate were used with respect to each concentration. As a positive control of a compound having lipolysis suppressive activity, nicotinic acid was used with reference to a previous report [Green A et. al., J. Biol. Chem., 1992, 267(5), 3223-9].
40 μL of a culture supernatant was extracted from each well, and the fatty acid concentration in the supernatant was then measured. Such fatty acid concentration was measured as follows, using the above-described NEFA-C Test Wako. 80 μL of liquid A included in the kit was added to 40 μL of the culture supernatant extracted from each well, and the obtained mixture was then incubated at 37° C. for 10 minutes. Thereafter, 160 μL of liquid B was added, and the obtained mixture was further incubated at 37° C. for 10 minutes. Thereafter, the absorbance at a wavelength of 550 nm was measured. At the same time, a standard fatty acid solution included in the kit was diluted to prepare a dilution series having a volume of 40 μL. According to the same operations as described above, liquid A and liquid B were added, and the absorbance was then measured. In accordance with instructions included with the kit, a calibration curve was prepared. Based on the thus prepared calibration curve, the fatty acid concentration in the culture supernatant was calculated. The reduction percentage of the fatty acid concentration was calculated with the following formula, setting the reduction percentage obtained by addition of 100 μM (final concentration) of nicotinic acid at 100%. […]

SMILES | IC50
CCn1cc(NC(=O)CCc2nc(-c3ccc(O)cc3)no2)c(C(=O)O)c1 [Example 12, 4-{3-[3-(4-Hydroxyphenyl)-1,2,4-oxadiazol-5-yl]propanoyl}amino-1-ethylpyrrole-3-carboxylic acid] | 29 nM
CCn1cc(NC(=O)CCc2onc(-c3ccc(O)cc3)c2Cl)c(C(=O)O)c1 [Example 33, 4-{3-[4-Chloro-(4-hydroxyphenyl)isoxazol-5-yl]propanoyl}amino-1-ethylpyrrole-3-carboxylic acid] | 7 nM
CCCCn1cc(NC(=O)CCc2nc(-c3ccc(O)cc3)no2)c(C(=O)O)c1C [Example 50, 4-{3-[3-(4-Hydroxyphenyl)-1,2,4-oxadiazol-5-yl]propanoyl}amino-1-butyl-2-methylpyrrole-3-carboxylic acid] | 823 nM
CCc1c(CC(F)C(=O)Nc2cn(CC)cc2C(=O)O)cnn1-c1ccccc1 (stereo not drawn) [Example 27] | 36 nM
CCn1cc(NC(=O)C(F)Cc2sc(-c3ccc(O)cc3)nc2Cl)c(C(=O)O)c1 (stereo not drawn) [Example 37, 4-{3-[4-Chloro-2-(4-hydroxyphenyl)thiazol-5-yl]-2-fluoropropanoyl}amino-1-ethylpyrrole-3-carboxylic acid] | 13 nM
CCn1cc(NC(=O)C(F)Cc2cnn(-c3ccccc3)c2C2CC2)c(C(=O)O)c1 (stereo not drawn) [Example 30] | 42 nM
Cn1cc(NC(=O)CCc2ccc3c(Cl)c(O)ccc3c2)c(C(=O)O)c1 [Example 2, 4-[3-(5-Chloro-6-hydroxy-2-naphthyl)propanoyl]amino-1-methylpyrrole-3-carboxylic acid] | 535 nM
CCn1cc(NC(=O)CCc2noc(-c3ccc(O)cc3)c2Cl)c(C(=O)O)c1 [Example 34, 4-{3-[5-(4-Hydroxyphenyl)-4-chloroisoxazol-3-yl]propanoyl}amino-1-ethylpyrrole-3-carboxylic acid] | 20 nM
CCn1cc(NC(=O)CCc2noc(-c3ccc(O)cc3)c2C(F)(F)F)c(C(=O)O)c1 [Example 53, 4-{3-[4-Trifluoromethyl-5-(4-hydroxyphenyl)isoxazol-3-yl]propanoyl}amino-1-ethylpyrrole-3-carboxylic acid] | 138 nM
CCn1cc(NC(=O)CCc2onc(-c3ccc(O)cc3)c2C)c(C(=O)O)c1 [Example 38, 4-{3-[(4-Hydroxyphenyl)-4-methylisoxazol-5-yl]propanoyl}amino-1-ethylpyrrole-3-carboxylic acid] | 4 nM
CCn1cc(NC(=O)C(F)Cc2cc(-c3ccc(O)cc3)no2)c(C(=O)O)c1 (stereo not drawn) [Example 62, 4-{3-[3-(4-Hydroxyphenyl)isoxazol-5-yl]-2-fluoropropanoyl}amino-1-ethylpyrrole-3-carboxylic acid] | 28 nM
CCCCn1cc(C(=O)O)c(NC(=O)CCc2nc(-c3ccc(O)cn3)no2)n1 [Example 17, 5-{3-[(5-Hydroxypyridin-2-yl)-1,2,4-oxadiazol-5-yl]propanoyl}amino-2-butylpyrazol-4-carboxylic acid] | 49 nM
CCCCn1cc(NC(=O)CCc2cnc(-c3ccc(O)cn3)o2)c(C(=O)O)c1 [Example 11, 4-{3-[2-(5-Hydroxypyridin-2-yl)oxazol-5-yl]propanoyl}amino-1-butylpyrrole-3-carboxylic acid] | 88 nM
CCCCn1cc(C(=O)O)c(NC(=O)CCc2nc(-c3ccc(O)cc3)no2)c1C#N [Example 51, 4-{3-[3-(4-Hydroxyphenyl)-1,2,4-oxadiazol-5-yl]propanoyl}amino-5-cyano-1-butylpyrrole-3-carboxylic acid] | 264 nM
CCn1cc(NC(=O)CCc2snc(-c3ccc(O)cc3)c2Cl)c(C(=O)O)c1 [Example 57, 4-{3-[4-Chloro-3-(4-hydroxyphenyl)isothiazol-5-yl]propanoylamino}-1-ethylpyrrole-3-carboxylic acid] | 161 nM
Cn1cc(NC(=O)CCc2nc(-c3ccc(O)cn3)no2)c(C(=O)O)c1 [Example 3, 4-{3-[(5-Hydroxypyridin-2-yl)-1,2,4-oxadiazol-5-yl]propanoyl}amino-1-methylpyrrole-3-carboxylic acid] | 7 nM
CCn1cc(NC(=O)CCc2cnn(-c3ccc(O)cc3)c2C(C)C)c(C(=O)O)c1 [Example 56, 4-{3-[1-(4-Hydroxyphenyl)-5-isopropylpyrazol-4-yl]propanoylamino}-1-ethylpyrrole-3-carboxylic acid] | 101 nM

The next lines start with the values.

IC50 | SMILES
40 nM | CCn1cc(NC(=O)C(F)(F)Cc2cnc(-c3ccc(O)cc3)s2)c(C(=O)O)c1 [Example 39, 4-{3-[2-(4-Hydroxyphenyl)thiazol-5-yl]-2,2-difluoropropanoyl}amino-1-ethylpyrrole-3-carboxylic acid]
9 nM | COCCCn1cc(NC(=O)CCc2cnc(-c3ccc(O)cc3)s2)c(C(=O)O)c1 [Example 18, 4-{3-[2-(4-Hydroxyphenyl)thiazol-5-yl]propanoyl}amino-1-(3-methoxypropyl)pyrrole-3-carboxylic acid]
40 nM | CCn1cc(NC(=O)CCc2cnc(-c3ccc(O)cc3)s2)c(C(=O)O)c1 [Example 13, 4-{3-[2-(4-Hydroxyphenyl)thiazol-5-yl]propanoyl}amino-1-ethylpyrrole-3-carboxylic acid]
10 nM | CCn1cc(NC(=O)CCc2nnc(-c3ccc(O)cc3)s2)c(C(=O)O)c1 [Example 55, 4-{3-[5-(4-Hydroxyphenyl)[1,3,4]thiadiazole-2-yl]propanoyl}amino-1-ethylpyrrole-3-carboxylic acid]
151 nM | Cn1cc(NC(=O)CCc2cnc(-c3ccc(O)c(Cl)c3)s2)c(C(=O)O)c1 [Example 10, 4-{3-[2-(3-Chloro-4-hydroxyphenyl)thiazol-5-yl]propanoyl}amino-1-methylpyrrole-3-carboxylic acid]
228 nM | CCn1cc(NC(=O)C(C)Cc2cnc(-c3ccc(O)cc3)s2)c(C(=O)O)c1 (stereo not drawn) [Example 54, 4-{3-[2-(4-Hydroxyphenyl)thiazol-5-yl]-2-methylpropanoyl}amino-1-ethylpyrrole-3-carboxylic acid]
22 nM | CCCn1cc(NC(=O)CCc2cc(-c3ccc(O)cc3)no2)c(C(=O)O)c1 [Example 61, 4-{3-[3-(4-Hydroxyphenyl)isoxazol-5-yl]propanoyl}amino-1-propylpyrrole-3-carboxylic acid]
663 nM | Cn1cc(NC(=O)CCc2cnc(-c3ccccc3)s2)c(C(=O)O)c1 [Example 5, 4-{3-(2-Phenylthiazol-5-yl)propanoyl}amino-1-methylpyrrole-3-carboxylic acid]
24 nM | Cn1cc(NC(=O)CCc2cnc(-c3ccc(O)cc3)s2)c(C(=O)O)c1 [Example 6, 4-{3-[2-(4-Hydroxyphenyl)thiazol-5-yl]propanoyl}amino-1-methylpyrrole-3-carboxylic acid]

same assay, conditions: test compound concentration giving 50% fatty acid concentration reduction percentage in culture supernatant; 1 μM isoproterenol, 5 hours incubation; reduction by 100 μM nicotinic acid set at 100%

IC50 | SMILES
15 nM | CCn1cc(NC(=O)C(F)Cc2cnc(-c3ccc(O)cc3)s2)c(C(=O)O)c1 (single isomer, unassigned; (-)) [Example 23a, (−)-4-{3-[2-(4-Hydroxyphenyl)thiazol-5-yl]-2-fluoropropanoyl}amino-1-ethylpyrrole-3-carboxylic acid]
